Source: patent US20060099712A1, “Correlation of anti-cancer activity of dyes with redox potentials” (Eastman Kodak Company, priority 2004, published 2006)
Values joined by “and” are separate entries in the source; they are usually repeats but may differ in a detail not shown here. Identical values can stand only once. Like-named read-outs stand apart in the source and are kept apart here.

Assays:
[1] = test system: CV-1 Normal Monkey Kidney Epithelial; assay: Clonogenic dye screening assay, CV-1 cells (IC50); assay type: cell-based, African green monkey; conditions: for IC50: Primates; for CV (IC50 in the CV-1 cell line): 3 hrs treatment, unit from method b117-118
Source text: CX-1 is a cancerous human colon adenocarcinoma cell line. CV-1 is a non-cancerous control, which is a kidney epithelial cell line from an African green monkey. IC50 is the dye concentration at which 50% of the cells are killed. Selectivity or kill ratio is defined as the ratio of […] at IC50 for both CX-1 and CV-1. A ratio with a high number indicates a high selectivity.
The dyes were screened in two cell lines. CX-1 is a human colon adenocarcinoma cell line. CV-1 is a kidney epithelial cell line from an African green monkey. CV-1 was used as a reference because no normal human epithelial cell line is available for clonogenic assay.
In the initial screen, dyes were examined at six different concentrations to generate a dose response curve. An IC50 value, the concentration at which 50% of the cells are killed, was then calculated. Initially, a dye concentration of 1.0 μg/mL was the highest examined for the CX-1 cell line and 0.005 μg/mL was the lower limit. The corresponding limits on the CV-1 cell line were […].
The screening procedure used a response curve that was determined from eight dye concentrations. The upper and lower limits of CX-1 were 0.32 and 0.0015 μg/mL, respectively, and the corresponding revised limits on CV-1 were 3.2 and 0.025 μg/mL. The screening results were reported by assigning an IC50 value to each dye for the CV-1 and CX-1 cell lines. These values will be referred to herein simply as CV and CX. The most desirable result would be to have a dye that was highly toxic to carcinoma cells but nontoxic to ‘normal’ cells. One measure of this type of selectivity is the ratio of the IC50's in the normal cell line to that in the carcinoma line, CV/CX.
Compounds are screened via an in vitro assay. CV-1 and CX-1 cells are seeded into separate assay plates. The plates are treated with varying concentrations of test compounds, rinsed, and colonies allowed to grow. IC50's are determined and drugs evaluated based on their selectivity and toxicity. Assay Steps: • I. Seeding Cells • II. Weighing • III. Preparation of Solution • IV. Treatment • V. Rinsing and Feeding • VI. Fixing • VII. IC50 Determination I. Seeding Cells
The cells should be seeded 16-30 hours before treatment. The media for CV-1 cells is DME+5% calf serum +5% Nuserum. The media for CX-1 cells is RPMI/DME (50/50)+5% calf serum +5% Nuserum.
(c) number of cells based on 2000 CX-1 cells/well and 1000 CV-1 cells/well. NOTE: Always make enough cell suspension for 1 extra plate to allow for volume loss during transfers.
• (a) For CV-1: 256 ug/ml-256 ul of 1 mg/ml stock +744 ul DMSO • (b) For CX-1: 25.6 ug/ml-100 ul of 256 ug/ml+900 ul DMSO IV. Treatment • 1. Each plate is treated with 4 test compounds, one positive control and one negative control. • 2. Serial dilutions of the compounds are made in the following way:
2 multi-well pipetters are used. One is set for 10 ul and one for 200 ul. Each is equipped with 6 tips spaced such that they fit into the 6 rows of a plate. 390 ul of media is added to the first column of each plate. 10 ul each of 4 compound solutions, a positive and a negative control are taken up and put into the first column of wells. The 200 ul pipetter is then placed in the same wells, pipetted up and down 3 times and two 200 ul aliquots are moved to the next column of wells. This column is pipetted up and down 3 times and 400 ul moved to column 3, etc. The final 400 ul excess from column 8 is discarded.
• 3. Label the plates along the front, each row −1 compound. • 4. Incubate the plates at 37° C. for 3 hrs. V. Rinsing • 1. Prepare several bottles of CX-1 and CV-1 media. • 2. Check for precipitate in first column of each plate and note. • 3. Starting with the plates treated first, rinse several plates at a time by aspirating the treatments and refilling each well with 0.5-1.0 ml of the rinse media. Aspirate and refill 2 more times for a total of 3 rinses. • 4.

[2] = test system: CX-1 Human Colon Carcinoma; assay: Clonogenic dye screening assay, CX-1 cells (IC50); assay type: cell-based; conditions: for IC50: Homo sapiens; for CV/CX (selectivity, kill ratio): ratio of IC50 in normal CV-1 line to IC50 in carcinoma CX-1 line; for CX (IC50 in the CX-1 cell line): 3 hrs treatment, unit from method b117-118
How it was run: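 Cells seeded 16-30 h ahead (2000 CX-1 or 1000 CV-1 per well), exposed to serially diluted dyes for 3 h at 37 °C, rinsed three times, then grown into colonies. Eight-point curves spanned 0.32-0.0015 μg/mL (CX-1) and 3.2-0.025 μg/mL (CV-1). IC50 is the concentration killing 50% of cells.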

[3] = CV-1, 3 hrs treatment, colonies after 7-10 days, unit from method, read-out: CV (IC50 in the CV-1 cell line)
[4] = CX-1, 3 hrs treatment, colonies after 7-10 days, unit from method, read-out: CX (IC50 in the CX-1 cell line)

Structure (SMILES) | IC50 [1, 3] [µg/mL] | IC50 [2, 4] [µg/mL] | CV/CX (selectivity, kill ratio) [2] | other results
CCN1/C(=C/C=C/c2sc3ccccc3[n+]2CCO)Sc2ccccc21 [Dye D-125] | > 3.2 | 0.035 | >91.4 | IC50 ([1]; CV-1, Table XX, thiacarbocyanine nitrogen substituents, CV-1 cells, read-out: CV): > 3.2 µg/mL; IC50 ([2]; CX-1, Table XX, thiacarbocyanine nitrogen substituents, CX-1 cells, read-out: CX): 0.035 µg/mL; CV/CX ([2]; Table XX, ratio given a value of 1 where dye inactive): 91.4
CCN1/C(=C/C=C/c2oc3ccc(-c4ccccc4)cc3[n+]2CCOC(C)=O)Sc2ccccc21 [Dye D-153] | 3 | 0.03 | 100 | –
CCN1/C(=c2/s/c(=c3\s/c(=C\c4ccc5ccccc5[n+]4CC)n(CC)c3=O)n(CC)c2=O)Sc2ccccc21 [Dye D-108] | 3.2 | 0.045 | 71.15 | –
CCN1/C(=C/C(=C/c2oc3ccccc3[n+]2CC)SC)Sc2ccccc21.[I-] [Dye D-137] | – | – | 100 | CV (IC50 in the CV-1 cell line) ([1]; colonies after 7-10 days): 3.0 µg/mL; CX (IC50 in the CX-1 cell line) ([2]; colonies after 7-10 days): 0.03 µg/mL
CCN1/C(=C/C=C/c2sc3c([n+]2C)CCCC3)Sc2ccccc21 [Dye D-146] | 0.3 | ≤ 0.004 | 75.0 and 60 | –
CC[n+]1c(/C=C/C=C2\Sc3ccccc3N2C(C)C)oc2ccccc21 [Dye D-122] | 0.4 | < 0.005 | 80 and >80.0 | IC50 ([1]; CV-1, Table XXI, oxathiacarbocyanine nitrogen substituents, CV-1 cells, read-out: CV): 0.4 µg/mL; IC50 ([2]; CX-1, Table XXI, oxathiacarbocyanine nitrogen substituents, CX-1 cells, read-out: CX): < 0.005 µg/mL; CV/C ([2]; Table XXI, selectivity ratio, value of 1 where dye inactive): >80.0
CC[n+]1c(/C=C/C=C2\SCCCN2C)sc2ccccc21 [Dye D-144] | 3 | 0.03 | 100 | –
CCN1/C(=C/C=C/c2oc3ccc(SC)cc3[n+]2C)Sc2ccccc21.[I-] [Dye D-138] | – | – | >60.0 and 60 | CV (IC50 in the CV-1 cell line) ([1]; colonies after 7-10 days): 0.3 µg/mL; CX (IC50 in the CX-1 cell line) ([2]; colonies after 7-10 days): <0.005 µg/mL
CC[n+]1c(/C=C/c2ccc(N(C)C)cc2)[te]c2ccc(C)cc21 [Dye D-156] | – | – | 60 | IC50 ([1]; CV-1, read-out: CV (IC50 in the CV-1 cell line)): 3 µg/mL; IC50 ([2]; CX-1, read-out: CX (IC50 in the CX-1 cell line)): 0.05 µg/mL
